Patent US7649002B2, “(3,5-dimethylpiperidin-1yl)(4-phenylpyrrolidin-3-yl)methanone derivatives as MCR4 agonists” (Pfizer Inc, priority 2004, dated 2010)

Biological target: T1, human MCR5 receptor (Homo sapiens, UniProt P33032)
T1 construct: expressed in transfected cells
Test: MCR5 standard functional assay (Protocol D): CHO-K1-MC5R-CRE-β-lactamase reporter
Type: cell-based
Settings: for EC50: Protocol D
Source text: These cell lines were engineered using protocols akin to those outlined by Zaccolo et al (Zaccolo, M., (2000) Nature, 2(1); 25-29). Compound-induced activation of the MCR5 or MCR4 receptors in these two cell lines stimulated the production, and intracellular accumulation, of the enzyme β-lactamase. The quantity of β-lactamase enzyme produced was directly proportional to the degree to which the test compound activated the MCR5 or MCR4 receptors present on these cells and was quantified using the P-lactamase gene reporter analysis kit that is commercially available from Invitrogen Life Technologies. An in-depth description of this technology and assay protocols are available from the Invitrogen web site (www.invitrogen.com). The protocol listed below provides a summary of that assay methodology. The quantity of β-lactamase enzyme produced by compound-induced activation of the MCR5 or MCR4 receptors expressed in these cell lines was quantified using a LjI Biosystems Analyst™ HT 96.384 plate reader set to excite at a wave length of 405 nm, and measure the energy emitted at wave lengths of 450 nm and 530 nm. Cellular responses were quantified by dividing the measured energy emitted at a wavelength of 450 nm by the measured energy emitted at a wavelength of 530 nm. […] CCF4-AM was dissolved in 100% DMSO to give a final solution concentration of 1 mM. This solution was termed Solution A. Probenecid was dissolved in 200 mM NaOH to give a final solution concentration of 200 mM. This solution was termed Solution D. Composition of the β-lactamase assay dye solution: for 1072 μL of assay dye solution combine: 12 μL of Solution A, 60 μL of Solution B, 925 μL of Solution C and 75 μL of Solution D. […] Cells were grown in T225 vent cap flasks containing 50 ml of growth medium and maintained in a cell incubator at a temperature of 37° C. and in an environment containing 5% CO2. The composition of the growth medium for the CHO-K1-MC5R-CRE-β-lactamase was 90% v/v DMEM supplemented with; Glutamax-1, 25 mM HEPES, 10% v/v foetal calf serum (FCS), 1 mM sodium pyruvate, 0.1 mM non essential amino acids and 800 μg/ml genetic in. For the CHO-K1-MC4R-CRE-β-lactamase this growth media was further supplemented with […] Zeocin. Cells were harvested when they reached 80-90% confluency by first removing the existing growth medium and then washing with PBS that had been pre-warmed to a temperature of 37° C. This PBS was then removed and 5 ml of cell dissociation fluid added to the flask. These cells were incubated for 5 minutes in a cell incubator set at a temperature of 37° C. and in an environment containing 5% CO2 to detach the cells. When cells were detached, pre-warmed growth media was added, the cells re-suspended and mixed gently to achieve a single cell suspension by pipetting. This cell suspension was then used for experimentation, or transferred into a new T225 flask to perpetuate the cell culture. On the first day of the assay cells were harvested as described above. […] For each assay the cell plates were then retuned to a cell incubator maintained at a temperature of 37° C. and in an environment containing 5% CO2 overnight before performing the assay on the second assay day. […] For the MCR4 improved functional assay methodology the solution of cyclohexamide was not added. Subsequently, 10 μL of the test compound solution was transferred to the assay plate. […] After this incubation period the plate was removed from the incubator, 10 μL of the […] assay dye solution was added to each well and then the plate returned to the cell incubator.

T1 sequence (P33032 whole entry): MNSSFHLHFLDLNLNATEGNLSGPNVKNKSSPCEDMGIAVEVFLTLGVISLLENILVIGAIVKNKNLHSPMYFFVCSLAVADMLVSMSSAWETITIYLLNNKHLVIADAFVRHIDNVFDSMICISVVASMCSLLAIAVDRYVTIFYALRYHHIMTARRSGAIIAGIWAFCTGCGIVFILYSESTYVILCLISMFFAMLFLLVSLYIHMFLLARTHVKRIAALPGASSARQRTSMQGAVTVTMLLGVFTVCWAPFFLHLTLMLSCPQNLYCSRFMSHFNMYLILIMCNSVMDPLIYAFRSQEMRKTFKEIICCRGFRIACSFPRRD

| Compound | Selectivity MCR5/MCR4 (Table 5, MCR4 by Protocol C) | EC50 (Table 5) [µM] | Selectivity MCR5/MCR4 (Table 6, MCR4 by Protocol E) | EC50 (Table 6) [µM] |
| --- | --- | --- | --- | --- |
| C[C@@H]1CN(C(=O)[C@@H]2CN(C(C)(C)C)C[C@H]2c2ccc(F)cc2F)C[C@H](C)[C@@]1(O)c1ccccc1 [Example 1, (3R,4R,5S)-1-{[(3S,4R)-1-tert-Butyl-4-(24-difluorophenyl)pyrrolidin-3-yl]carbonyl}-3,5-dimethyl-4-phenylpiperidin-4-ol] | 268 | 6.71 | 285 |  |
| C[C@@H]1CN(C(=O)[C@@H]2CN(C(C)(C)C)C[C@H]2c2ccc(F)cc2F)C[C@H](C)[C@@]1(O)c1ccccc1.Cl [Example 5, (3R,4R,5S)-1-{[(3S,4R)-1-tert-Butyl-4-(2,4-difluorophenyl)pyrrolidin-3-yl]carbonyl}-3,5-dimethyl-4-phenylpiperidin-4-ol hydrochloride] |  |  | 285 | 2.74 |
| CC(C)N1C[C@@H](C(=O)N2C[C@@H](C)[C@](O)(c3ccccc3)[C@@H](C)C2)[C@H](c2ccc(F)cc2F)C1.Cl [Example 6, (3R,4R,5S)-1-{[(3S,4R)-4-(2,4-Difluorophenyl)-1-isopropylpyrrolidin-3-yl]carbonyl}-3,5-dimethyl-4-phenylpiperidin-4-ol hydrochloride] |  |  | 83 | 1.59 |
| C[C@@H]1CN(C(=O)[C@@H]2CNC[C@H]2c2ccc(F)cc2F)C[C@H](C)[C@@]1(O)c1ccc(F)cc1.Cl [Example 12, (3R,4R,5S)-1-{[(3S,4R)-4-(2,4-difluorophenyl)pyrrolidin-3-yl]carbonyl}-4-(4-fluorophenyl)-3,5-dimethylpiperidin-4-ol hydrochloride] |  |  | 267 | 20 |
| C[C@@H]1CN(C(=O)[C@@H]2CN(C(C)(C)C)C[C@H]2c2ccc(F)cc2F)C[C@H](C)[C@@]1(O)c1ccc(Cl)cc1.Cl [Example 13, (3R,4R,5S)-1-{[(3S,4R)-1-tert-butyl-4-(2,4-difluorophenyl)pyrrolidin-3-yl]carbonyl}-4-(4-chlorophenyl)-3,5-dimethylpiperidin-4-ol hydrochloride] |  |  | 624 | 16.9 |
| C[C@@H]1CN(C(=O)[C@@H]2CN(c3ccccn3)C[C@H]2c2ccc(F)cc2F)C[C@H](C)[C@@]1(O)c1ccccc1.Cl [Example 31, (3R,4R,5S)-1-{[(3S,4R)-4-(2,4-difluorophenyl)-1-pyridin-2-ylpyrrolidin-3-yl]carbonyl}-3,5-dimethyl-4-phenylpiperidin-4-ol hydrochloride] |  |  | 266 | 0.956 |
| C[C@@H]1CN(C(=O)[C@@H]2CN(c3cccnn3)C[C@H]2c2ccc(F)cc2F)C[C@H](C)[C@@]1(O)c1ccccc1.Cl [Example 35, (3R,4R,5S)-1-{[(3S,4R)-4-(2,4-difluorophenyl)-1-pyridazin-3-ylpyrrolidin-3-yl]carbonyl}-3,5-dimethyl-4-phenylpiperidin-4-ol hydrochloride] |  |  | 13,333 | 20 |
